Measured values as given in patent publication US10774110B2, “Rapadocins, inhibitors of equilibrative nucleoside transporter 1 and uses thereof” (The Johns Hopkins University, priority 2016, dated 2020).
Like-named read-outs stand apart in the source and are kept apart here.

Legend:
ENT1 [1] = biological target: T1, ENT1 (Homo sapiens, UniProt P62942+Q99808); experiment: 3H-Thymidine uptake, potency of Rapadocin analogs (Table 2); format: cell-based; design: endogenous in cells
From the text: (§1) Rapadocin is a synthetic macrocycle composed of two ‘domains’—a FKBD (FKBP12 binding domain) and a peptide domain. […] The peptidic fragment can tolerate a range of modifications with varying effects on ENT1 inhibition.
Table 2 discloses the potency of various Rapadocin analogs.
Target sequence in this assay (Q99808 2-456 limits assumed): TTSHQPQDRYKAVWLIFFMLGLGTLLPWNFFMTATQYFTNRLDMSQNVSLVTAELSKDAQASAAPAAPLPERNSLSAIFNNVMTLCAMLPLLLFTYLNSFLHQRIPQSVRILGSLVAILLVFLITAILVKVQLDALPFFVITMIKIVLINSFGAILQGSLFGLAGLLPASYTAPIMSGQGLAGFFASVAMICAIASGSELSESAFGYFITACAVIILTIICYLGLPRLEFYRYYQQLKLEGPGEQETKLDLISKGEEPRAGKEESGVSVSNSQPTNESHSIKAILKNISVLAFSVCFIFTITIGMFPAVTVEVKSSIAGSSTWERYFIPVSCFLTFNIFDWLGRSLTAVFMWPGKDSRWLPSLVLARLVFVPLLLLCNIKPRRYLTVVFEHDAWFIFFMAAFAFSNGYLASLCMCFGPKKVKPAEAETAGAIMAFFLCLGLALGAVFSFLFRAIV
Target sequence in this assay (P62942 2-108 limits assumed): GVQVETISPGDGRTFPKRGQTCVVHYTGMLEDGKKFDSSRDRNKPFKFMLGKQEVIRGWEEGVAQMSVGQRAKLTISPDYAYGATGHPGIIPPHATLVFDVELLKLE

A549 = experiment: 3H-Thymidine uptake in A549; format: cell-based, human
From the text: (§2) uptake in at least seven cell lines and is predicted to inhibit nucleoside uptake in all human cell lines (see e.g., FIG. 2 and Table 1).

293T = experiment: 3H-Thymidine uptake in 293T; format: cell-based, human
From the text: as §2

[2] = Solubility in aqueous solutions; format: physicochemical
HUVEC = experiment: 3H-Thymidine uptake in HUVEC; format: cell-based, human
From the text: FIG. 2. Rapadocin inhibits ^3H-Thymidine uptake in Human Umbilical Vein Endothelial Cells (HUVEC).
as §2

MCF-7 = experiment: 3H-Thymidine uptake in MCF-7; format: cell-based, human
From the text: as §2

[3] = Stability in cell culture media; format: physicochemical; conditions: 5 days, 37° C., 10% Fetal Bovine Serum
[4] = tested on: kidney ischemia reperfusion injury; experiment: Kidney ischemia reperfusion injury mouse model; format: in vivo
From the text: as §1
(§3) Two human and animal models have been studied to show the efficacy of Rapadocin (FIGS. 4 and 5). Under several physiological conditions, adenosine is released into the blood where it can act on adenosine receptors. Normally, this adenosine (ADO) is rapidly reabsorbed via ENT1. In the presence of Rapadocin, uptake is inhibited and ADO is able to produce enhanced signaling leading to several potentially beneficial physiological responses.

MDA MB-231 = experiment: 3H-Thymidine uptake in MDA MB-231; format: cell-based, human
From the text: as §2

FKBP12 = biological target: T2, FKBP12 (Homo sapiens, UniProt P62942); experiment: Antagonism of uptake inhibition by FKBP12-binders; format: cell-based; conditions: FIG. 3
T2 construct: endogenous in cells
From the text: FIG. 3. Rapadocin's uptake inhibition is antagonized by FKBP12-binders Rapamycin and FK506.

HeLa = experiment: 3H-Thymidine uptake in HeLa; format: cell-based, human
From the text: as §2

[5] = tested on: platelet aggregation in human blood; experiment: Platelet aggregation in human blood activated by ADP; format: cell-based; conditions: FIG. 4
From the text: as §3

RKO = experiment: 3H-Thymidine uptake in RKO; format: cell-based, human
From the text: as §2

ENT1 [6] = biological target: T1, ENT1; experiment: 3H-Adenosine / nucleoside uptake by hENT1 (vs hENT2); format: cell-based
From the text: FIG. 1. Rapadocin inhibits ^3H-Adenosine uptake by specifically inhibiting hENT1.
Rapadocin inhibits nucleoside
Target sequence in this assay (Q99808 whole entry, the tested form may be a part): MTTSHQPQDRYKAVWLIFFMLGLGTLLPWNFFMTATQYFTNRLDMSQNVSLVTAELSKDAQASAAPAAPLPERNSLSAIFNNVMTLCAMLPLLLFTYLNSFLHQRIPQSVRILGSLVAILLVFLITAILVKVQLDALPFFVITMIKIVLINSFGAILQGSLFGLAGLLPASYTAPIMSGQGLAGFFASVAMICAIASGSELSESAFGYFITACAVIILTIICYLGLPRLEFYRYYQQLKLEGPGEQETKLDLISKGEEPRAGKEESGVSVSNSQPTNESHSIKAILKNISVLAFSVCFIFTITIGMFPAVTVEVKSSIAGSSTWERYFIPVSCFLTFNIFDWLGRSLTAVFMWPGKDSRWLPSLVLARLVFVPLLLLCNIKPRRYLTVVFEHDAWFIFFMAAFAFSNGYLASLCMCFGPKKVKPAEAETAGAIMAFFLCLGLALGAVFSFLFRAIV
Target sequence in this assay (P62942 2-108 limits assumed): as the sequence (P62942 2-108 limits assumed) above

T2 sequence (P62942 whole entry): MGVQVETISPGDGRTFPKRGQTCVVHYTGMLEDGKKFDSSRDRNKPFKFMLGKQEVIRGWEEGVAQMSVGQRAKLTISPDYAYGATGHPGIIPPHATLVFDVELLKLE

With `c1ccc2sccc2c1` [Analog 95-15-8] the EC50 (ENT1 [1]; cells printed with uM, read-out: EC50 3H-Tymidine uptake) was > 1 µM.

Compound `COc1ccc(CC[C@H]2OC(=O)[C@@H]3CCCCN3C(=O)C(=O)C(C)(C)COC(=O)C=CCCN(C)C(=O)[C@H](CC(C)C)N(C)C(=O)[C@@H]3CCCN3C(=O)[C@H](Cc3ccc(OCC(=O)NCCOCCOCCNC(=O)CCCCC4SCC5NC(=O)NC54)cc3)NC(=O)[C@H](c3ccccc3)NC(=O)CCC(=O)Nc3cccc2c3)cc1OC` (some centres unmarked) [JW95TyrBiotin] has an EC50 (ENT1 [1]) of 0.064 µM.

Work on `C#CCCC1(CCOc2ccc(C[C@@H]3NC(=O)[C@H](c4ccccc4)NC(=O)CCC(=O)Nc4cccc(c4)[C@@H](CCc4ccc(OC)c(OC)c4)OC(=O)C4CCCCN4C(=O)C(=O)C(C)(C)COC(=O)C=CCCN(C)C(=O)[C@H](CC(C)C)N(C)C(=O)[C@@H]4CCCN4C3=O)cc2)N=N1` (some centres unmarked) [JW95TyrDiaz] yielded an EC50 (ENT1 [1]) of 0.02 µM.

Compound `COc1ccc(CC[C@H]2OC(=O)[C@@H]3CCCCN3C(=O)C(=O)C(C)(C)COC(=O)/C=C/CCN(C)C(=O)[C@H](CC(C)C)N(C)C(=O)[C@H]3CCCN3C(=O)[C@H](Cc3ccccc3)N(C)C(=O)[C@H](c3ccccc3)NC(=O)CCC(=O)Nc3cccc2c3)cc1OC` [Rapadocin] has an EC50 (ENT1 [1]) of 0.00616 µM, an EC50 (A549) of 6.3 nM and an EC50 (293T) of 5 nM. For the same compound, the solubility [2] was ≤ 10 µM, the EC50 (HUVEC) was 6.4 nM and the 3H-Thymidine uptake inhibition (HUVEC; FIG. 2) was “inhibits”. For the same compound, the EC50 (MCF-7) was 9 nM, the resistance to degradation [3] was “resist degradation over 5 days” and the tolerability in animals ([4]; kidney ischemia model) was “safely tolerated”. For the same compound, the “protection against kidney ischemia reperfusion injury” value ([4]; mouse model, FIG. 5) was “protects against kidney ischemia reperfusion injury”, the EC50 (MDA MB-231) was 41.1 nM and the “uptake inhibition in presence of FKBP12-binders Rapamycin and FK506” value (FKBP12) was “antagonized”. For the same compound, the EC50 (HeLa) was 16.3 nM, the platelet aggregation [5] was “inhibits platelet aggregation” and the EC50 (RKO) was 11.4 nM. The 3H-Adenosine uptake inhibition (ENT1 [6]; FIG. 1, by specifically inhibiting hENT1) was “inhibits” and the “inhibition of nucleoside uptake by hENT1 over hENT2” value (ENT1 [6]; selectivity hENT1 over hENT2, FIG. 1) was “potently and specifically inhibits”.
